Literature values as cited in US20050192272A1, “Substituted benzodiazepines as inhibitors of the chemokine receptor CXCR4” (priority 2003, published 2005).

Assays:
CXCR4 = CXCR4 (Homo sapiens, UniProt P61073); details: read-out: IC50 in inhibiting the binding of CXCL12 to CXCR4
[1] = Phase I/II clinical trials
[2] = rats

Chain of CXCR4 (P61073 whole entry): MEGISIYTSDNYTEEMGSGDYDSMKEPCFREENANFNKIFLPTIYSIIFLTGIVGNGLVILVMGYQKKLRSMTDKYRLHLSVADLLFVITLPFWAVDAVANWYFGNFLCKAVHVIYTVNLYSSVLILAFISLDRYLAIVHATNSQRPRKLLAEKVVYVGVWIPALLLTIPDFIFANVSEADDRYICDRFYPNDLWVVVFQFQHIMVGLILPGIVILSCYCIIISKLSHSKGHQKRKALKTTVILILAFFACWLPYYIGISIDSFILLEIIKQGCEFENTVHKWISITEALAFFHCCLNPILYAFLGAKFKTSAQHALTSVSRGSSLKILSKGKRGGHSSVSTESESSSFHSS

For “[Tyr^5,12, Lys^7]-polyphemusin II [T-22]”, the “inhibition of multiplication of X4-strains of HIV” value (X4-strains of HIV; through specific binding to the CXCR4 receptor) is listed as “strongly inhibit”.

For c(Nal-Gly-tyr-Arg-Arg) [FC131], the IC50 (CXCR4) is given as 4 nM and the “level of anti-HIV activity and antagonism among CXCR4 antagonists reported to date” value (X4-strains of HIV) is given as “matched”.

For `c1cc(CN2CCCNCCNCCCNCC2)ccc1CN1CCCNCCNCCCNCC1` [AMD3100], the cardiac toxicity [1] is given as “exhibited certain cardiac toxicity properties” and the effectiveness [1] is given as “limited effectiveness”.

For `c1cc(CN2CCCNCCNCCCNCC2)ccc1CN1CCCNCCNCCCNCC1` [ALX40-4C], the acute cardiac toxicity (month-long clinical study, 1995) is given as “did not exhibit any acute cardiac toxicity” and the adverse side effects (one-month Phase I/II clinical study) is given as “no adverse side effects”.

In the case of `C[C@H](NC(=O)[C@H](CCCNC(=N)N)NC(=O)c1ccc(CNCc2ccccn2)cc1)c1cccc2ccccc12` [KRH-1636], the “absorption from the duodenum” value [2] is listed as “absorbed from the duodenum in rats”.
